Test results from US5840684A, “Glycopeptide antibiotic derivatives” (Eli Lilly and Company, priority 1995, dated 1998).
≈ marks a conversion by molar mass, not a printed value.

How the values were obtained:
[1] = test system: Staphylococcus aureus S13E; type: cell-based
Experimental: (§1) The MIC's were determined using a standard broth micro-dilution assay.

[2] = test system: Staphylococcus aureus SA1199B; type: cell-based
Experimental: as §1

[3] = test system: Entercoccus faecium 180-1; assay: broth micro-dilution MIC; type: cell-based
Experimental: as §1

Entercoccus faecium 276 = assay: broth micro-dilution MIC; type: cell-based
Experimental: as §1

[4] = test system: Staphylococcus aureus 446; assay: broth micro-dilution MIC; type: cell-based
Experimental: as §1

[5] = test system: Staphylococcus aureus 447; assay: broth micro-dilution MIC; type: cell-based
Experimental: as §1

[6] = test system: Staphylococcus aureus 489; assay: broth micro-dilution MIC; type: cell-based
Experimental: as §1

[7] = test system: Staphylococcus aureus 491; assay: broth micro-dilution MIC; type: cell-based
Experimental: as §1

[8] = test system: Staphylococcus aureus SA1199A; assay: broth micro-dilution MIC; type: cell-based
Experimental: as §1

[9] = test system: Staphylococcus aureus SA1199; assay: broth micro-dilution MIC; type: cell-based
Experimental: as §1

[10] = test system: Staphylococcus aureus X400; assay: broth micro-dilution MIC; type: cell-based
Experimental: as §1

[11] = test system: Staphylococcus aureus X778; assay: broth micro-dilution MIC; type: cell-based
Experimental: as §1

[12] = test system: Streptococcus pyogenes C203; assay: broth micro-dilution MIC; type: cell-based
Experimental: as §1

Entercoccus faecium 180 = assay: broth micro-dilution MIC; type: cell-based; conditions: Entercoccus faecium 180
Experimental: (§2) The formula I compounds have in vitro and in vivo activity against Gram-positive pathogenic bacteria. The MIC's were determined using a standard broth micro-dilution assay.

Entercoccus faecium 2041 = assay: broth micro-dilution MIC; type: cell-based; conditions: Entercoccus faecium 2041
Experimental: as §2

[13] = test system: Enterococcus gallinarum 245; assay: broth micro-dilution MIC; type: cell-based; conditions: Enterococcus gallinarum 245
Experimental: as §2

[14] = test system: Staphylococcus epidermidis 270; assay: broth micro-dilution MIC; type: cell-based
Experimental: as §2

[15] = test system: Staphylococcus haemolyticus 105; assay: broth micro-dilution MIC; type: cell-based
Experimental: as §2

[16] = test system: Staphylococcus haemolyticus 415; assay: broth micro-dilution MIC; type: cell-based
Experimental: as §2

[17] = test system: Streptococcus pneumoniae P1; assay: broth micro-dilution MIC; type: cell-based
Experimental: as §2

[18] = test system: vancomycin-resistant enterococci; assay: broth micro-dilution, mean geometric MIC; type: cell-based, Enterococcus faecium and Enterococcus faecalis; conditions: enterococci, 24-hour incubation
[19] = test system: vancomycin-susceptible enterococci; assay: broth micro-dilution, mean geometric MIC; type: cell-based, Enterococcus faecium and Enterococcus faecalis; conditions: enterococci, 24-hour incubation

SMILES | MIC [1] [µg/mL] | MIC [2] [µg/mL] | MIC [3] [µg/mL] | MIC (Entercoccus faecium 276) [µg/mL] | MIC [4] [µg/mL] | MIC [5] [µg/mL] | MIC [6] [µg/mL] | MIC [7] [µg/mL] | MIC [8] [µg/mL] | MIC [9] [µg/mL] | MIC [10] [µg/mL] | MIC [11] [µg/mL] | MIC [12] [µg/mL] | MIC (Entercoccus faecium 180) [µg/mL] | MIC (Entercoccus faecium 2041) [µg/mL] | MIC [13] [µg/mL] | MIC [14] [µg/mL] | MIC [15] [µg/mL] | MIC [16] [µg/mL] | MIC [17] [µg/mL] | also measured
CNC(CC(C)C)C(=O)NC1C(=O)NC(CC(N)=O)C(=O)NC2C(=O)NC3C(=O)NC(C(=O)NC(C(=O)O)c4cc(O)cc(O)c4-c4cc3ccc4O)C(OC3CC(C)(N)C(O)C(C)O3)c3ccc(c(Cl)c3)Oc3cc2cc(c3OC2OC(CO)C(O)C(O)C2OC2CC(C)(NCc3ccc(OS(=O)(=O)c4c(C)c(C)c(C)c(C)c4C)cc3)C(O)C(C)O2)Oc2ccc(cc2Cl)C1O (stereo not shown) [Compound 173] | 4 (≈ 2.1 µM) | 4 (≈ 2.1 µM) | 0.5 (≈ 0.262 µM) | 2 (≈ 1.05 µM) | 4 (≈ 2.1 µM) | 4 (≈ 2.1 µM) | 2 (≈ 1.05 µM) | 2 (≈ 1.05 µM) | 0.5 (≈ 0.262 µM) | 2 (≈ 1.05 µM) | 4 (≈ 2.1 µM) | 4 (≈ 2.1 µM) | ≤ 0.06 | 0.5 (≈ 0.262 µM) | 0.5 (≈ 0.262 µM) | 4 (≈ 2.1 µM) | 2 (≈ 1.05 µM) | 2 (≈ 1.05 µM) | 4 (≈ 2.1 µM) | ≤ 0.06 | mean geometric MIC, Vancomycin Resistant Strains [18]: 2.0 µg/mL; mean geometric MIC, Vancomycin Sensitive Strains [19]: 0.12 µg/mL
CNC(CC(C)C)C(=O)NC1C(=O)NC(CC(N)=O)C(=O)NC2C(=O)NC3C(=O)NC(C(=O)NC(C(=O)O)c4cc(O)cc(O)c4-c4cc3ccc4O)C(OC3CC(C)(N)C(O)C(C)O3)c3ccc(c(Cl)c3)Oc3cc2cc(c3OC2OC(CO)C(O)C(O)C2OC2CC(C)(NCc3ccc(S(=O)(=O)N4CCCC4)cc3)C(O)C(C)O2)Oc2ccc(cc2Cl)C1O (stereo not shown) [Compound 174] | ≤ 0.06 | 0.125 (≈ 0.0688 µM) | ≤ 0.06 | ≤ 0.06 | 0.5 (≈ 0.275 µM) | 4 (≈ 2.2 µM) | ≤ 0.06 | 1 (≈ 0.551 µM) | ≤ 0.06 | ≤ 0.06 | ≤ 0.06 | ≤ 0.06 | ≤ 0.06 | 2 (≈ 1.1 µM) | ≤ 0.06 | 16 (≈ 8.81 µM) | 2 (≈ 1.1 µM) | 4 (≈ 2.2 µM) | 16 (≈ 8.81 µM) | ≤ 0.06 | mean geometric MIC, Vancomycin Resistant Strains [18]: 19 µg/mL; mean geometric MIC, Vancomycin Sensitive Strains [19]: 0.76 µg/mL
CCCCCCCCCCC#CCNC1(C)CC(OC2C(Oc3c4cc5cc3Oc3ccc(cc3Cl)C(OC3CC(C)(N)C(O)C(C)O3)C3NC(=O)C(NC(=O)C5NC(=O)C(CC(N)=O)NC(=O)C(NC(=O)C(CC(C)C)NC)C(O)c5ccc(c(Cl)c5)O4)c4ccc(O)c(c4)-c4c(O)cc(O)cc4C(C(=O)O)NC3=O)OC(CO)C(O)C2O)OC(C)C1O (stereo not shown) [Compound 191] | 2 (≈ 1.13 µM) | 2 (≈ 1.13 µM) | 0.25 (≈ 0.141 µM) | 4 (≈ 2.26 µM) | 2 (≈ 1.13 µM) | 2 (≈ 1.13 µM) | 2 (≈ 1.13 µM) | 1 (≈ 0.565 µM) | 0.5 (≈ 0.282 µM) | 2 (≈ 1.13 µM) | 1 (≈ 0.565 µM) | 2 (≈ 1.13 µM) | ≤ 0.06 | 4 (≈ 2.26 µM) | 1 (≈ 0.565 µM) | 8 (≈ 4.52 µM) | 2 (≈ 1.13 µM) | 2 (≈ 1.13 µM) | 8 (≈ 4.52 µM) | ≤ 0.06 | mean geometric MIC, Vancomycin Resistant Strains [18]: 6.7 µg/mL; mean geometric MIC, Vancomycin Sensitive Strains [19]: 0.57 µg/mL
CNC(CC(C)C)C(=O)NC1C(=O)NC(CC(N)=O)C(=O)NC2C(=O)NC3C(=O)NC(C(=O)NC(C(=O)O)c4cc(O)cc(O)c4-c4cc3ccc4O)C(OC3CC(C)(N)C(O)C(C)O3)c3ccc(c(Cl)c3)Oc3cc2cc(c3OC2OC(CO)C(O)C(O)C2OC2CC(C)(NCc3ccc(N=Nc4ccccc4)cc3)C(O)C(C)O2)Oc2ccc(cc2Cl)C1O (stereo not shown) [Compound 210] | ≤ 0.06 | 0.125 (≈ 0.07 µM) | ≤ 0.06 | ≤ 0.06 | 2 (≈ 1.12 µM) | 0.5 (≈ 0.28 µM) | 1 (≈ 0.56 µM) | ≤ 0.06 | ≤ 0.06 | 0.5 (≈ 0.28 µM) | ≤ 0.06 | 1 (≈ 0.56 µM) | ≤ 0.06 | ≤ 0.06 | ≤ 0.06 | 1 (≈ 0.56 µM) | 0.25 (≈ 0.14 µM) | 1 (≈ 0.56 µM) | 1 (≈ 0.56 µM) | ≤ 0.06 | mean geometric MIC, Vancomycin Resistant Strains [18]: 0.84 µg/mL; mean geometric MIC, Vancomycin Sensitive Strains [19]: 0.041 µg/mL
CNC(CC(C)C)C(=O)NC1C(=O)NC(CC(N)=O)C(=O)NC2C(=O)NC3C(=O)NC(C(=O)NC(C(=O)O)c4cc(O)cc(O)c4-c4cc3ccc4O)C(OC3CC(C)(N)C(O)C(C)O3)c3ccc(c(Cl)c3)Oc3cc2cc(c3OC2OC(CO)C(O)C(O)C2OC2CC(C)(NCc3ccc4c(c3)CCc3ccccc3-4)C(O)C(C)O2)Oc2ccc(cc2Cl)C1O (stereo not shown) [Compound 220] | 0.5 (≈ 0.28 µM) | 0.5 (≈ 0.28 µM) | ≤ 0.06 | 0.125 (≈ 0.07 µM) | 1 (≈ 0.56 µM) | 0.5 (≈ 0.28 µM) | 0.5 (≈ 0.28 µM) | ≤ 0.06 | ≤ 0.06 | 1 (≈ 0.56 µM) | 0.5 (≈ 0.28 µM) | 0.5 (≈ 0.28 µM) | ≤ 0.06 | 0.125 (≈ 0.07 µM) | ≤ 0.06 | 0.5 (≈ 0.28 µM) | 1 (≈ 0.56 µM) | 0.5 (≈ 0.28 µM) | 0.5 (≈ 0.28 µM) | ≤ 0.06 | mean geometric MIC, Vancomycin Resistant Strains [18]: 0.71 µg/mL; mean geometric MIC, Vancomycin Sensitive Strains [19]: 0.05 µg/mL
CCCCCC#Cc1ccc(CNC2(C)CC(OC3C(Oc4c5cc6cc4Oc4ccc(cc4Cl)C(OC4CC(C)(N)C(O)C(C)O4)C4NC(=O)C(NC(=O)C6NC(=O)C(CC(N)=O)NC(=O)C(NC(=O)C(CC(C)C)NC)C(O)c6ccc(c(Cl)c6)O5)c5ccc(O)c(c5)-c5c(O)cc(O)cc5C(C(=O)O)NC4=O)OC(CO)C(O)C3O)OC(C)C2O)cc1 (stereo not shown) [Compound 227] | 4 (≈ 2.25 µM) | 4 (≈ 2.25 µM) | ≤ 0.06 | 0.5 (≈ 0.281 µM) | 2 (≈ 1.13 µM) | 2 (≈ 1.13 µM) | 2 (≈ 1.13 µM) | 2 (≈ 1.13 µM) | 0.6 (≈ 0.338 µM) | 4 (≈ 2.25 µM) | 1 (≈ 0.563 µM) | 4 (≈ 2.25 µM) | ≤ 0.06 | 0.25 (≈ 0.141 µM) | 0.25 (≈ 0.141 µM) | 4 (≈ 2.25 µM) | 2 (≈ 1.13 µM) | 2 (≈ 1.13 µM) | 4 (≈ 2.25 µM) | ≤ 0.06 | mean geometric MIC, Vancomycin Resistant Strains [18]: 0.71 µg/mL; mean geometric MIC, Vancomycin Sensitive Strains [19]: 0.11 µg/mL
CNC(CC(C)C)C(=O)NC1C(=O)NC(CC(N)=O)C(=O)NC2C(=O)NC3C(=O)NC(C(=O)NC(C(=O)O)c4cc(O)cc(O)c4-c4cc3ccc4O)C(OC3CC(C)(N)C(O)C(C)O3)c3ccc(c(Cl)c3)Oc3cc2cc(c3OC2OC(CO)C(O)C(O)C2OC2CC(C)(NCc3cccc(Sc4ccc(C(C)(C)C)cc4)c3)C(O)C(C)O2)Oc2ccc(cc2Cl)C1O (stereo not shown) [Compound 228] | 8 (≈ 4.33 µM) | 4 (≈ 2.17 µM) | ≤ 0.06 | 1 (≈ 0.541 µM) | 4 (≈ 2.17 µM) | 4 (≈ 2.17 µM) | 2 (≈ 1.08 µM) | 1 (≈ 0.541 µM) | ≤ 0.06 | 4 (≈ 2.17 µM) | 1 (≈ 0.541 µM) | 4 (≈ 2.17 µM) | 0.125 (≈ 0.0677 µM) | 1 (≈ 0.541 µM) | 0.25 (≈ 0.135 µM) | 4 (≈ 2.17 µM) | 2 (≈ 1.08 µM) | 2 (≈ 1.08 µM) | 4 (≈ 2.17 µM) | ≤ 0.06 | mean geometric MIC, Vancomycin Resistant Strains [18]: 1.0 µg/mL; mean geometric MIC, Vancomycin Sensitive Strains [19]: 0.14 µg/mL
